Results as given in US20260249027A1, “METERED DOSE INHALERS AND HIGH-DOSE SUSPENSIONS” (Kindeva Drug Delivery L.P., priority 2023, published 2026).

Experiments:
[1] = Aerodynamic particle size measurement of mometasone furoate pMDI suspensions (Next Generation impactor); type: physicochemical
From the text: In general, aerosols with mass median aerodynamic diameters (MMAD) of at least 1 μm but less than 5 μm in size are suitable for effective deep lung deposition for therapeutic effect. Herein, fine particle fraction (FPF) is defined as the percentage of the ex-actuator delivered API having a MMAD of less than 5 μm when tested in vitro. Herein, “ex-actuator” delivered dose is used to describe the amount of API delivered past the actuator of a pMDI. Therefore, an aerosol with a high FPF is typically suitable for deep lung deposition.
(§1) In the following examples, dose consistency was determined by in vitro measurement of single actuation dose content at start, middle and end of pMDI unit life in line with U.S. Pharmacopeia (USP)<601>, using a flow rate of 28.3 L/min and apparatus A. Aerodynamic particle size distribution of the pMDI suspension aerosols was measured at start of unit life in line with U.S. Pharmacopeia (USP)<601> using a Next Generation impactor without pre-separator (apparatus 6) and a flow rate of 30 L/min.
(§2) Suspensions of micronized mometasone furoate in HFA-152a or HFO-1234ze(E) were prepared. A first set of suspensions included no ethanol. A second set of suspensions included 2% ethanol by weight. Each suspension included an amount of mometasone furoate to provide a nominal delivered dose (ex-valve) of 0.5 mg/actuation (10.0 mg/mL) or 1.0 mg/actuation (20.0 mg/mL). Two further suspensions including no ethanol were prepared which included an amount of mometasone furoate to provide a nominal delivered dose (ex-valve) of 2.0 mg/actuation (40.0 mg/mL).
(§3) In total, ten suspension pMDI formulations were prepared in triplicate with sufficient fill weight to provide 60 actuations. Each suspension was filled into Kindeva FEP coated canisters, crimped with a Kindeva 50-μL valve. Each pMDI unit was sonicated for at least 10 minutes to disperse the suspended drug and tested with a Kindeva actuator having an exit orifice diameter (EOD) of 0.4 mm or 0.25 mm.
The mass median aerodynamic diameter (MMAD) and fine particle fraction (FPF) of each pMDI unit were measured by Next Generation cascade impaction (N=3) for each pMDI suspension.

[2] = Through life dose consistency of mometasone furoate pMDI suspensions (USP <601>, apparatus A); type: physicochemical
Experimental: as §1, §2
as §3, with “0.4” for “0.4 mm or 0.25”
The through-life (TL) dose consistency of each pMDI unit was determined by measuring the mean ex-actuator delivered dose in micrograms of mometasone furoate (N=3) at the start of life (SoL), middle of life (MOL) and end of life (EoL) of the unit.

[3] = nominal ex-valve 0.5 mg/act, HFA-152a/2% EtOH (w/w), actuator exit orifice diameter 0.4 mm
[4] = nominal ex-valve 0.5 mg/act, HFA-152a, actuator exit orifice diameter 0.4 mm
[5] = nominal ex-valve 0.5 mg/act, HFO-1234ze(E)/2% EtOH (w/w), actuator exit orifice diameter 0.25 mm
[6] = nominal ex-valve 0.5 mg/act, HFO-1234ze(E)/2% EtOH (w/w), actuator exit orifice diameter 0.4 mm
[7] = nominal ex-valve 0.5 mg/act, HFO-1234ze(E), actuator exit orifice diameter 0.25 mm
[8] = nominal ex-valve 0.5 mg/act, HFO-1234ze(E), actuator exit orifice diameter 0.4 mm
[9] = nominal ex-valve 1.0 mg/act, HFA-152a/2% EtOH (w/w), actuator exit orifice diameter 0.25 mm
[10] = nominal ex-valve 1.0 mg/act, HFA-152a/2% EtOH (w/w), actuator exit orifice diameter 0.4 mm
[11] = nominal ex-valve 1.0 mg/act, HFA-152a, actuator exit orifice diameter 0.25 mm
[12] = nominal ex-valve 1.0 mg/act, HFA-152a, actuator exit orifice diameter 0.4 mm
[13] = nominal ex-valve 1.0 mg/act, HFO-1234ze(E)/2% EtOH (w/w), actuator exit orifice diameter 0.25 mm
[14] = nominal ex-valve 1.0 mg/act, HFO-1234ze(E)/2% EtOH (w/w), actuator exit orifice diameter 0.4 mm
[15] = nominal ex-valve 1.0 mg/act, HFO-1234ze(E), actuator exit orifice diameter 0.25 mm
[16] = nominal ex-valve 1.0 mg/act, HFO-1234ze(E), actuator exit orifice diameter 0.4 mm
[17] = nominal ex-valve 2.0 mg/act, HFA-152a, actuator exit orifice diameter 0.4 mm
[18] = nominal ex-valve 2.0 mg/act, HFO-1234ze(E), actuator exit orifice diameter 0.4 mm
[19] = nominal ex-valve 0.5 mg/act, HFA-152a
[20] = nominal ex-valve 0.5 mg/act, HFA-152a/2% EtOH (w/w)
[21] = nominal ex-valve 0.5 mg/act, HFO-1234ze(E)
[22] = nominal ex-valve 0.5 mg/act, HFO-1234ze(E)/2% EtOH (w/w)
[23] = nominal ex-valve 1.0 mg/act, HFA-152a
[24] = nominal ex-valve 1.0 mg/act, HFA-152a/2% EtOH (w/w)
[25] = nominal ex-valve 1.0 mg/act, HFO-1234ze(E)
[26] = nominal ex-valve 1.0 mg/act, HFO-1234ze(E)/2% EtOH (w/w)
[27] = nominal ex-valve 2.0 mg/act, HFA-152a
[28] = nominal ex-valve 2.0 mg/act, HFO-1234ze(E)

For `C[C@@H]1C[C@H]2[C@@H]3CCC4=CC(=O)C=C[C@]4(C)[C@@]3(Cl)[C@@H](O)C[C@]2(C)[C@@]1(OC(=O)c1ccco1)C(=O)CCl` [mometasone furoate], the “FPF with actuator EOD 0.25 mm compared with EOD 0.4 mm” value ([1]; 0.5 and 1.0 mg/actuation in HFO-1234ze(E), 1.0 mg/actuation in HFA-152a) was “consistently greater FPFs”, the “MMAD values of aerosols, suitability” value ([1]; HFA-152a or HFO-1234ze(E), with and without ethanol, in-vitro) was “in an appropriate respirable range” and the “FPF without ethanol compared with corresponding suspensions with 2% ethanol by weight” value ([1]; HFA-152a or HFO-1234ze(E), all nominal doses) was “generally produced greater FPFs”. The “Mean FPF” value [1, 3] was 34.0%, the “Mean MMAD” value [1, 3] was 3.55 μm and the “Mean FPF” value [1, 4] was 37.5%. For the same compound, the “Mean MMAD” value [1, 4] was 3.56 μm, the “Mean FPF” value [1, 5] was 55.3% and the “Mean MMAD” value [1, 5] was 3.70 μm. The “Mean FPF” value [1, 6] was 39.0%, the “Mean MMAD” value [1, 6] was 3.70 μm and the “Mean FPF” value [1, 7] was 66.6%. For the same compound, the “Mean MMAD” value [1, 7] was 3.41 μm, the “Mean FPF” value [1, 8] was 49.8% and the “Mean MMAD” value [1, 8] was 3.36 μm. For the same compound, the “Mean FPF” value [1, 9] was 45.3%, the “Mean MMAD” value [1, 9] was 3.91 μm and the “Mean FPF” value [1, 10] was 31.1%. For the same compound, the “Mean MMAD” value [1, 10] was 3.90 μm, the “Mean FPF” value [1, 11] was 49.1% and the “Mean MMAD” value [1, 11] was 3.75 μm. The “Mean FPF” value [1, 12] was 29.4%, the “Mean MMAD” value [1, 12] was 4.13 μm and the “Mean FPF” value [1, 13] was 52.5%. For the same compound, the “Mean MMAD” value [1, 13] was 3.84 μm, the “Mean FPF” value [1, 14] was 31.8% and the “Mean MMAD” value [1, 14] was 4.01 μm. The “Mean FPF” value [1, 15] was 58.8%, the “Mean MMAD” value [1, 15] was 3.61 μm and the “Mean FPF” value [1, 16] was 39.5%. The “Mean MMAD” value [1, 16] was 3.69 μm, the “Mean FPF” value [1, 17] was 19.5% and the “Mean MMAD” value [1, 17] was 5.09 μm. For the same compound, the “Mean FPF” value [1, 18] was 22.5%, the “Mean MMAD” value [1, 18] was 4.87 μm and the “FPF and MMAD in HFO-1234ze(E) compared with corresponding suspensions in HFA-152a” value ([1]; with or without ethanol) was “consistently produced greater FPFs and generally smaller MMADs”. The “effect of addition of ethanol on through unit life ex-actuator delivered dose consistency” value ([2]; 2% ethanol by weight, HFA-152a or HFO-1234ze(E)) was “did not always substantially improve”, the “through unit life ex-actuator delivered dose consistency” value ([2]; HFA-152a or HFO-1234ze(E) with and without 2% ethanol by weight) was “relatively consistent” and the “EoL mean delivered dose” value [2, 19] was 433.2 μg/act. The “MoL mean delivered dose” value [2, 19] was 433.8 μg/act, the “SoL mean delivered dose” value [2, 19] was 457.7 μg/act and the “TL mean delivered dose” value [2, 19] was 441.6 μg/act. The “EoL mean delivered dose” value [2, 20] was 450.9 μg/act, the “MoL mean delivered dose” value [2, 20] was 427.3 μg/act and the “SoL mean delivered dose” value [2, 20] was 408.9 μg/act. For the same compound, the “TL mean delivered dose” value [2, 20] was 429.1 μg/act, the “EoL mean delivered dose” value [2, 21] was 430.8 μg/act and the “MoL mean delivered dose” value [2, 21] was 434.7 μg/act. The “SoL mean delivered dose” value [2, 21] was 457.5 μg/act, the “TL mean delivered dose” value [2, 21] was 441.0 μg/act and the “EoL mean delivered dose” value [2, 22] was 465.7 μg/act. For the same compound, the “MoL mean delivered dose” value [2, 22] was 453.1 μg/act, the “SoL mean delivered dose” value [2, 22] was 433.9 μg/act and the “TL mean delivered dose” value [2, 22] was 450.9 μg/act. For the same compound, the “EoL mean delivered dose” value [2, 23] was 705.6 μg/act, the “MoL mean delivered dose” value [2, 23] was 1018.3 μg/act and the “SoL mean delivered dose” value [2, 23] was 1087.9 μg/act. For the same compound, the “TL mean delivered dose” value [2, 23] was 937.3 μg/act, the “EoL mean delivered dose” value [2, 24] was 759.7 μg/act and the “MoL mean delivered dose” value [2, 24] was 936.3 μg/act. For the same compound, the “SoL mean delivered dose” value [2, 24] was 906.5 μg/act, the “TL mean delivered dose” value [2, 24] was 867.5 μg/act and the “EoL mean delivered dose” value [2, 25] was 934.4 μg/act. For the same compound, the “MoL mean delivered dose” value [2, 25] was 931.9 μg/act, the “SoL mean delivered dose” value [2, 25] was 752.4 μg/act and the “TL mean delivered dose” value [2, 25] was 855.3 μg/act. The “EoL mean delivered dose” value [2, 26] was 848.1 μg/act, the “MoL mean delivered dose” value [2, 26] was 1003.4 μg/act and the “SoL mean delivered dose” value [2, 26] was 852.6 μg/act. For the same compound, the “TL mean delivered dose” value [2, 26] was 901.4 μg/act, the “EoL mean delivered dose” value [2, 27] was 1613.8 μg/act and the “MoL mean delivered dose” value [2, 27] was 1771.5 μg/act. For the same compound, the “SoL mean delivered dose” value [2, 27] was 1815.1 μg/act, the “TL mean delivered dose” value [2, 27] was 1733.4 μg/act and the “EoL mean delivered dose” value [2, 28] was 1837.0 μg/act. For the same compound, the “MoL mean delivered dose” value [2, 28] was 1725.9 μg/act, the “SoL mean delivered dose” value [2, 28] was 1755.0 μg/act and the “TL mean delivered dose” value [2, 28] was 1772.6 μg/act.
